Experimental findings from patent US20210078932A1, “3,4-DIHYDROXYPHENETHYL 3-HYDROXYBUTANOATE, PREPARATION AND USE THEREOF” (XI'AN JIAOTONG UNIVERSITY, priority 2019, published 2021) are described below.

Assay [1] concerns rats with brain fatigue. The assay is described as follows: Open field test in sleep-deprivation brain fatigue rat model. The note with it: for amelioration of manic mood of the rats with brain fatigue: overall conclusion after administration; for average moving speed / number of movements: sleep-deprived rats, drug intragastrically daily, compared with brain fatigue group; for average moving speed: FIG. 2A; for number of movements: FIG. 2B. The assay is classed as in vivo, SD rats. The method, then:
(§1) 8-week-old adult male SD rats (body weight: 250 g) purchased from Experimental Animal Center of The Second Military Medical University in Shanghai were used in the experiments. The rats were kept in an animal room with controlled temperature (22° C. to 28° C.) and humidity (60%). The light of the room was maintained in a 12 h/12 h day/night light cycle. The rats were able to eat and drink freely during the experiments. A brain fatigue rat model was established by using the sleep deprivation method in the experiments. The experimental rats were divided into five groups, with 10 rats in each group.
The five groups are as follows: (1) a normal feeding group with normal saline intragastrically administered daily (hereinafter referred to as the control group); (2) a brain fatigue model group established by the sleep deprivation method, with normal saline intragastrically administered daily (hereinafter referred to as the brain fatigue group); (3) a brain fatigue model group established by the sleep deprivation method, with 35 mg/kg of hydroxytyrosol acetate intragastrically administered daily (hereinafter referred to as HTac group, as shown in the following table); (4) a brain fatigue model group established by the sleep deprivation method, with 23.6 mg/kg of […] intragastrically administered daily (hereinafter referred to as HBET group, as shown in the following table); (5) a brain fatigue model group established by the sleep deprivation method, with 42.9 mg/kg of hydroxytyrosol hydroxybutyrate intragastrically administered daily (hereinafter referred to as HTHB group, as shown in Table 1).
The rats were preconditioned in the animal room for one week, during which the drugs were intragastrically administered. From the second day of the acquisition training of the water maze experiment, the rats other than the control group were started to be subjected to the small-platform-over-water sleep deprivation to establish the brain fatigue stress model. The sleep deprivation apparatus was mainly composed of two parts: a water tank and a platform disposed in the tank. The tank was filled with water. The size of the platform can only for the hind legs of the rat to stand. The platform was fixed to the bottom of the tank, and the top surface of the platform is above the water surface. The rat was placed on the platform for sleep deprivation. Once the rat fell asleep, its muscle tension would decrease and its center of gravity would move forward, which would cause the rat to fall into the water and suddenly be awakened. In order to avoid this, the rat must keep a slight grip on the edge of the platform, which deprived the sleep of the rat and caused brain fatigue.
The open field test is a classic behavioral test to evaluate emotion of rodents, which is based on the principle that the rodents have instincts to fear an open field and have spontaneous phobotaxis activities. Abnormalities in phobotaxis can indicate emotional abnormalities of rodents. The apparatus of the open field test was mainly composed of a black PVC box and a video tracking system. The box was 80 cm in both length and width and 50 cm in height. A camera of the video tracking system was hung at a height of 1.5 meters from the bottom of the box. The rat can move freely in the open field box, and the camera facing the box recorded the movements of the rat. By using the video tracking system, the interior of the box was divided into 16 squares arranged in 4×4 matrix, in which 12 surrounding squares were defined as a surrounding area, and 4 internal squares were defined as a central area, respectively.
The open field test follows the last day of the water maze experiment. After the water maze experiment, each rat was put back into the cage and rested for 10 minutes. Then in the open field test, the rat was placed at the center of the box bottom in a quiet environment, and was video recorded by the camera for 5 minutes, after which the rat was removed from the box. […]

Assay [2] deals with rats with brain fatigue. The assay is described as follows: Morris water maze experiment (exploration test) in sleep-deprivation brain fatigue rat model. The assay is classed as in vivo, SD rats. The protocol: as §1, with “group. […]” for “group.”

For the compound hydroxytyrosol acetate [HTac], in the assay with rats with brain fatigue [1], the “amelioration of manic mood of the rats with brain fatigue” value (from here on “amelioration of manic mood of the rats”) is “significantly ameliorated to certain degrees”, the average moving speed entry is recorded as “significantly different” and the number of movements entry is recorded as “significantly different”.

With `CC(O)CC(=O)OCCc1ccc(O)c(O)c1` (centres unmarked) [HTHB, 3,4-dihydroxyphenethyl 3-hydroxybutanoate], in the assay on rats with brain fatigue [1] (overall comparison, in some indicators), the “amelioration of manic mood compared with hydroxytyrosol acetate and ethyl β-hydroxybutyrate” value was “better amelioration of manic mood”. In the assay on rats with brain fatigue [1], the “amelioration of manic mood of the rats” value was “significantly ameliorated to certain degrees”, the average moving speed result is “significantly different” and the number of movements result was “significantly different”. Besides, the “improvement of learning and memory abilities of the rats with brain fatigue” value in the assay with rats with brain fatigue [2] (overall conclusion, compared with hydroxytyrosol acetate and ethyl β-hydroxybutyrate) was “more obviously improved the learning and memory abilities”. For the same compound, in the assay on rats with brain fatigue [2] (sleep-deprived rats, drug intragastrically daily, compared with brain fatigue group, FIG. 1A), the “swimming time in the quadrant IV (percentage)” value is “significantly different”.

For the compound `CCOC(=O)CC(C)O` (stereo not drawn) [HBET, ethyl β-hydroxybutyrate], in the assay with rats with brain fatigue [1], the “amelioration of manic mood of the rats” value is on record as “significantly ameliorated to certain degrees” and the average moving speed result was “significantly different”.
